According to the supplement of paper PMC11451515:

Tested on: NOMO1
Test: cell viability relative to DMSO control; higher = less cytotoxic
Conditions: 48 h
Procedure, shortened: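 Viability was expressed as a per-plate percentage of DMSO wells, with cell-free wells as background. Leukemia cells (NOMO1 or SEM at 500 cells/well, P12-Ichikawa at 1000 cells/well) were adapted for at least four passages in each medium and seeded in 1536-well plates (5 μl). Library compounds in DMSO were pin-dosed over an 11-point threefold series from 47 μM to 0.79 nM, and CellTiter-Glo One luminescence was read after 48 h at 37°C.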

[1] = HPLM + 10% dialyzed FBS, 0.000781 µM
[2] = HPLM + 10% dialyzed FBS, 0.00234 µM
[3] = HPLM + 10% dialyzed FBS, 0.00702 µM
[4] = HPLM + 10% dialyzed FBS, 0.0211 µM
[5] = HPLM + 10% dialyzed FBS, 0.0632 µM
[6] = HPLM + 10% dialyzed FBS, 0.19 µM
[7] = HPLM + 10% dialyzed FBS, 0.569 µM
[8] = HPLM + 10% dialyzed FBS, 1.71 µM
[9] = HPLM + 10% dialyzed FBS, 5.12 µM
[10] = HPLM + 10% dialyzed FBS, 15.4 µM
[11] = HPLM + 10% dialyzed FBS, 46.1 µM
[12] = RPMI 5 mM glucose + 10% FBS, 0.000781 µM
[13] = RPMI 5 mM glucose + 10% FBS, 0.00234 µM
[14] = RPMI 5 mM glucose + 10% FBS, 0.00702 µM
[15] = RPMI 5 mM glucose + 10% FBS, 0.0211 µM
[16] = RPMI 5 mM glucose + 10% FBS, 0.0632 µM
[17] = RPMI 5 mM glucose + 10% FBS, 0.19 µM
[18] = RPMI 5 mM glucose + 10% FBS, 0.569 µM
[19] = RPMI 5 mM glucose + 10% FBS, 1.71 µM
[20] = RPMI 5 mM glucose + 10% FBS, 5.12 µM
[21] = RPMI 5 mM glucose + 10% FBS, 15.4 µM
[22] = RPMI 5 mM glucose + 10% FBS, 46.1 µM
[23] = RPMI 5 mM glucose + 10% dialyzed FBS, 0.000781 µM
[24] = RPMI 5 mM glucose + 10% dialyzed FBS, 0.00234 µM
[25] = RPMI 5 mM glucose + 10% dialyzed FBS, 0.00702 µM
[26] = RPMI 5 mM glucose + 10% dialyzed FBS, 0.0211 µM
[27] = RPMI 5 mM glucose + 10% dialyzed FBS, 0.0632 µM
[28] = RPMI 5 mM glucose + 10% dialyzed FBS, 0.19 µM
[29] = RPMI 5 mM glucose + 10% dialyzed FBS, 0.569 µM
[30] = RPMI 5 mM glucose + 10% dialyzed FBS, 1.71 µM
[31] = RPMI 5 mM glucose + 10% dialyzed FBS, 5.12 µM
[32] = RPMI 5 mM glucose + 10% dialyzed FBS, 15.4 µM
[33] = RPMI 5 mM glucose + 10% dialyzed FBS, 46.1 µM

Structure (SMILES)	cell viability [1]	cell viability [2]	cell viability [3]	cell viability [4]	cell viability [5]	cell viability [6]	cell viability [7]	cell viability [8]	cell viability [9]	cell viability [10]	cell viability [11]	cell viability [12]	cell viability [13]	cell viability [14]	cell viability [15]	cell viability [16]	cell viability [17]	cell viability [18]	cell viability [19]	cell viability [20]	cell viability [21]	cell viability [22]	cell viability [23]	cell viability [24]	cell viability [25]	cell viability [26]	cell viability [27]	cell viability [28]	cell viability [29]	cell viability [30]	cell viability [31]	cell viability [32]	cell viability [33]
CCn1c(-c2nonc2N)nc2c(C#CC(C)(C)O)ncc(OC[C@H]3CCCNC3)c21	91.3%	88.8%	80%	96%	73.4%	75.8%	71.9%	61.7%	70.3%	71.7%	48%	80.8%	82.5%	84.1%	84.1%	79.8%	87.3%	81%	83.5%	82%	84.1%	49.3%	77.2%	96.1%	86.8%	93.7%	80.6%	84.3%	74.4%	82%	74.2%	79.2%	68.2%
[O-]C(=O)C/1=N/C(=O)NC(=O)N1	87.7%	108%	92.9%	96.9%	101%	95.1%	86.3%	96.9%	85.4%	83.4%	88.9%	93.5%	96.8%	99.9%	88.9%	92.8%	91.8%	86.3%	91.3%	85.4%	80.9%	93.1%	90.2%	93.2%	88.2%	86.2%	90.8%	92.8%	81.1%	78.5%	79.9%	77%	81.8%
CN1CCN(c2c(F)cc3c(=O)c(C(=O)O)cn(CCF)c3c2F)CC1	97.8%	107%	114%	119%	101%	116%	106%	124%	105%	125%	96.9%	101%	103%	108%	109%	122%	106%	104%	116%	120%	114%	119%	93.3%	93.2%	97.6%	109%	106%	108%	115%	111%	118%	102%	104%
CC[C@]12CC[C@H]3[C@@H](CCC/4=C/C(=O)CC[C@H]34)[C@@H]1CC[C@@]2(O)C#C	100%	92.6%	101%	85.8%	97.1%	94.4%	86.6%	72.4%	89.2%	80.4%	69.8%	92.7%	78.8%	95%	88.5%	81.8%	75.1%	72.2%	76.3%	82.5%	73.5%	70.8%	82.1%	77.5%	77.7%	86.6%	75.4%	77.6%	79.7%	78.5%	74.1%	74.9%	84.5%
CCOc1cc2ncc(C#N)c(Nc3ccc(F)c(Cl)c3)c2cc1NC(=O)/C=C/CN(C)C	120%	133%	111%	114%	127%	84.9%	80.9%	57%	50.8%	42.7%	4.8%	118%	128%	116%	124%	123%	118%	102%	85.6%	66.2%	76.3%	10.4%											
CC\12CCC(=O)\C=C1CCC3C2CCC4(C)C3CCC4(O)C#C (stereo not given)	98.9%	101%	106%	91.1%	112%	100%	98.3%	98.8%	77.5%	86.4%	88%	89.9%	93.2%	97.4%	103%	86.6%	94.9%	88.8%	84%	87.2%	88.1%	74.7%	99.8%	101%	95.8%	95.5%	99.6%	96.1%	74.9%	79.2%	73.9%	83.5%	85.7%
OC1=CC2=C(C=C1)C(=O)\C(=C(O2)\C3=CC(=C(O)C=C3)O)O	105%	98%	108%	93%	102%	97.1%	91.2%	105%	84%	93.9%	65.6%	85.9%	91.3%	96.2%	6.71%	96.6%	85%	99.7%	88.9%	74.5%	74.8%	67.5%	96.5%	103%	101%	96.3%	100%	92%	93.3%	89.5%	81.3%	81.3%	60.1%
